Reference: article PMC6593224, “Validation and Invalidation of Chemical Probes for the Human N-myristoyltransferases” (Cell Chemical Biology, 2019)
“Also recorded” adds a separate entry of the source. Like-named read-outs stand apart in the source and are kept apart here.

Columns and labels:
[1] = tested on: N-myristoylated proteome (NMT substrates); assay: Quantitative chemical proteomics of YnMyr-tagged proteins; format: cell-based, human; conditions: MDA-MB-231 (n = 75)
Text: HeLa and MDA-MB-231 cells were exposed (in triplicate) to 1–5, in a setup identical to that used for in-gel analyses (Figure 2A), with the exception that YnMyr-tagged proteins were ligated to AzRB. Labeled proteins were enriched on NeutrAvidin-agarose and digested on-resin with trypsin; peptides were labeled with tandem mass tag, and analyzed and quantified by nano-liquid chromatography-tandem mass spectrometry on a Thermo Q-Exactive instrument.
Cysteine carbamidomethylation was used as a fixed modification and methionine oxidation and N-terminal acetylation as variable modifications. ‘Trypsin/P’ was chosen as digestion mode enzyme, and up to two missed cleavages were allowed. The ‘match between run’ option was selected, along with ‘unique and razor peptides’ for protein quantification. TMT was set per sample group. […] The false discovery rate was set to 0.01 for peptides and a minimum of 2 unique peptides per protein were required. The mass spectrometry proteomics data have been deposited to the ProteomeXchange Consortium via the PRIDE partner repository with the dataset identifier PXD012722.

[2] = tested on: NMT (in-cell target engagement, ARL1); assay: Sortase A assay (peptide addition to ARL1), human cell lines
Description: (§1) The homogenate was further disrupted by shearing it three times through a 30G needle. […] Hereafter the reaction was quenched with 5 mM EDTA and stored at −20°C until further analysis.

[3] = tested on: N-myristoylation in living cells; conditions: cited from earlier work
[4] = Precipitation in rNMT1 buffer, absorbance at 750 nm; format: physicochemical; conditions: 15 min at room temperature
Description: Absorbance at 750 nm was determined after 15 min at room temperature.
and 72 h. Mean of quadruplicate measurements, ± SEM.
(E) Nuclei counts of HeLa cells after exposure to 1-5 for 24, 48 and 72 h. Mean of quadruplicate

MDA-MB-231 cells = assay: Nuclei counting as a measure for proliferation; format: cell-based, human
Description: After 24, 48 or 72 h of exposure, cell viability was evaluated by determination of metabolic activity and counting of cellular nuclei. Metabolic activity was assessed by addition of Cell Titer Blue (Promega), incubation at 37°C and the appropriate percentage of CO2 for 3 h, followed by measuring the absorbance at 490 nm using a PHERAstar (BMG LabTech, Germany). For nuclei counting, cells were fixed with 4% (w/v) paraformaldehyde at room temperature (RT) for 20 min, permeabilised with 0.2% (v/v) Triton X-100 in PBS at RT for 20 min, DNA stained with 1 μg/mL DAPI (Life Technologies, D1306) at RT for 1 h, followed by three washes with PBS. Whole well images for the total number of cells were acquired with an Acumen Cellista (TTP Labtech), using the 405 nm excitation / FL1 (420-500 nm) emission channel. The cell viability was normalised to the negative control (DMSO) and positive control (Staurosporin and puromycin), followed by fitting the four-parametric variable slope function (GraphPad Prism 5.0) to data of quadruplicate experiments.

human NMTs = conditions: read-out: In Vitro IC50, Reported, cited from earlier work
[5] = target: T1, recombinant human N-myristoyltransferase 1 (rNMT1) (Homo sapiens, UniProt P30419); assay: Enzymatic HsNMT1 assay (CPM detection of CoA thiol by-product); format: biochemical; conditions: for rNMT1 activity: below 300 μM
T1 construct: Full-length HsNMT1 enzyme was produced as previously described; made in house
T1 sequence (P30419 1-496): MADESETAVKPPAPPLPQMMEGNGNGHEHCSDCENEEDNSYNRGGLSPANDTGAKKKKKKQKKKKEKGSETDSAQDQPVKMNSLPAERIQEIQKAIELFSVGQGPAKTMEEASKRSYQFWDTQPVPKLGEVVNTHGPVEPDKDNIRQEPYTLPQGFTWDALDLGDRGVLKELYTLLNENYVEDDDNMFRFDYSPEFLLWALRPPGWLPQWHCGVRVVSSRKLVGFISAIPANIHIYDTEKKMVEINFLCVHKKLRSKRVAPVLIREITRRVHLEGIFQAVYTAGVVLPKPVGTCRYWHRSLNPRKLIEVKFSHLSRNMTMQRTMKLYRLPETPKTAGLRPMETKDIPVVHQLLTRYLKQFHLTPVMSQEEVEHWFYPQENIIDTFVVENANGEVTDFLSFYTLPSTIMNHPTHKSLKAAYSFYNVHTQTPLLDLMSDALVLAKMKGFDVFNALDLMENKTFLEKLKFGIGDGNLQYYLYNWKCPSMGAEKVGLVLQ
Description: After background correction, IC50 values were determined by fitting the four-parametric variable slope function (GraphPad Prism 5.0), with the stated IC50 values being the mean of two independent assays performed in triplicate.

both NMTs = target: both NMTs; design: method as in Mousnier et al., 2018; conditions: ref Mousnier et al., 2018; cited from earlier work
[6] = tested on: NMT within living cells (N-myristoylation); assay: YnMyr metabolic tagging, in-gel fluorescence; conditions: for N-myristoylation in cells (summary of assays): 1 μM IMP-366, 100 nM IMP-1088, 100 μM 2-hydroxymyristic acid, 30 μM D-NMAPPD, 10 μM Tris-DBA palladium, 18 h; for quantification of YnMyr tagging of ten bands: MDA-MB-231 and HeLa, 100 μM 3, 30 μM 4, 10 μM 5
[7] = Precipitation in growth media
[8] = tested on: NMT (in-cell target engagement, ARL1); assay: Sortase A assay (peptide addition to ARL1), murine cells; format: cell-based; conditions: MEF and NIH3T3 cells; 100, 10 and 1 μM 4
Description: as §1

HeLa cells [9] = assay: Cell-cycle distribution by FACS (DNA content, EdU); conditions: 18 h, 30 μM 4, 10 μM 5
[10] = tested on: MDA-MB-231 and HeLa cells; assay: Bright-field microscopy; format: cell-based, human; conditions: both cell lines; 18 h; 30 μM 4, 10 μM 5
HeLa cells [11] = assay: Apoptosis, active caspase-3 staining by FACS; conditions: 18 h, 30 μM 4, 10 μM 5
[12] = tested on: de novo protein synthesis; assay: L-AHA tagging of de novo protein synthesis; format: cell-based, human; conditions: MDA-MB-231 and HeLa; 18 h; 30 μM 4, 10 μM 5
Text: Cells were subsequently harvested as described before (see Myristic Acid Analogue (YnMyr) Tagging Experiments).

human NMT1 = conditions: cited from earlier work
[13] = tested on: lysosomal acid ceramidase; design: method as in Raisova et al., 2002; conditions: various cancer cell lines, >5 μM 4; ref Raisova et al., 2002; cited from earlier work
A375 melanoma = tested on: A375 melanoma; design: method as in Bhandarkar et al., 2008; conditions: 11 μM 5, ref Bhandarkar et al., 2008; cited from earlier work
NMT2 = conditions: ref Rampoldi et al., 2012; cited from earlier work
Jurkat cells = assay: Metabolic activity (Cell Titer Blue); conditions: Jurkat (suspension); 10 μM 5 for 72 h
[14] = range of concentrations, 24, 48, 72 h
[15] = recombinant human NMT1, mean of two independent assays in triplicate, values for 3 and 4 extrapolated, read-out: In Vitro IC50, This Article

Row | SMILES | hierarchical one-minus Pearson correlation clustering of enrichment of N-myristoylated proteins [1] | concentration at which the compound precipitated (absorbance at 750 nm) [4] | effect on proliferation (nuclei counts) (MDA-MB-231 cells; [14]) | N-myristoylation in cells (summary of assays) [6] | rNMT1 activity [5] | IC50 [5, 15] [µM] | quantification of YnMyr tagging of ten bands [6] | depletion of S phase compared with MDA-MB-231 (HeLa cells [9]) | cell morphology [10] | induction of apoptosis compared with MDA-MB-231 (HeLa cells [11]) | decrease in L-AHA labeling [12] | also measured
1 | Cc1nn(C)c(C)c1CCOc1c(-c2ccc3c(c2)c(CN(C)C)nn3C)ccc(F)c1F [Compound 2, IMP-1088] | very similar to that of control cells not treated with YnMyr | above 300 μM | only after 48 and 72 h | complete inhibition |  |  |  |  |  |  |  | NMT engagement (sortase A) ([2]; all cell lines tested (panel of nine, incl. murine MEF and NIH3T3)): engaged NMT; N-myristoylation in cells ([3]; low nanomolar concentrations, ref Mousnier et al., 2018): completely inhibited; IC50 (human NMTs; ref Mousnier et al., 2018): < 0.001 µM; IC50 [5]: 0.00024 µM; Kd (both NMTs): ~0.0002 µM; N-myristoylation in cells (summary of assays) ([6]; listed as IMP-1088): complete and specific inhibition; concentration for complete inhibition of in-cell N-myristoylation above the IC50 toward recombinant NMT1 ([6]; approximately): 30- to 100 fold
2 | CCCCCCCCCCCCC(O)C(=O)O (centres unmarked) [Compound 3, 2-hydroxymyristic acid] | do not affect NMT activity | 300 µM | unaffected | did not inhibit | not reduced | > 300 | at most a minor reduction |  |  |  |  | NMT inhibition (sortase A) ([2]; Jurkat, HEK293 and NCI-H23 cells, 100, 10 and 1 μM 3): did not inhibit NMT; metabolic labeling of cells with [3H]myristate ([3]; 100 μM to 1 mM, ref Vaandrager et al., 1996, Tan et al., 2016): reduce metabolic labeling; IC50 (human NMTs; ref Paige et al., 1990): 100 µM; effect of addition to medium ([7]; 3 at 1 mM, directly or in a mixture with BSA, data not shown): precipitation in the medium and cell death; inhibition of recombinant NMT1 ([5]; 100 μM 3, while soluble): did not inhibit; N-myristoylation in cells (summary of assays) ([6]; listed as 2-Hydroxymyristate): inactive; N-myristoylation in cells (summary of assays) ([6]; listed as 2-hydroxymyristic acid): unaffected
3 | CCCCCCCCCCCCCC(=O)N[C@H](CO)[C@H](O)c1ccc([N+](=O)[O-])cc1 [Compound 4, D-NMAPPD] | do not affect NMT activity | 300 µM |  | unaffected | not reduced | > 300 | at most a minor reduction | correspondingly lower depletion of S phase | more rounded apoptotic cells | less induction of apoptosis | 40%–80% | NMT inhibition (sortase A) [8]: no effect; NMT inhibition (sortase A) ([2]; PC-3 cells, 100, 10 and 1 μM 4): no effect; IC50 ([3]; ref Kim et al., 2017, read-out: IC50, capacity to reduce N-myristoylation in living cells): ~15 µM; effect on proliferation (nuclei counts) (MDA-MB-231 cells; 30 μM 4, 24, 48, 72 h): hindered proliferation equally at all time points; IC50 (human NMT1; ref Kim et al., 2017, read-out: biochemical human NMT1 IC50): 78 µM; increase of ceramide concentrations [13]: up to 12 fold
4 | O=C(/C=C/c1ccccc1)/C=C/c1ccccc1.O=C(/C=C/c1ccccc1)/C=C/c1ccccc1.O=C(/C=C/c1ccccc1)/C=C/c1ccccc1.[Pd].[Pd] [Compound 5, Tris (dibenzylideneacetone) di-palladium] | do not affect NMT activity | 10 µM |  | unaffected; also recorded: does not inhibit NMT in cells |  | 4.2 | at most a minor reduction | correspondingly lower depletion of S phase | exhibited this phenotype | less induction of apoptosis | 40%–80% | decrease in cell count (A375 melanoma): 96%; NMT2 inhibition (claimed selectivity NMT1 vs NMT2) (NMT2): 1.3 µM; NMT inhibition (sortase A) and cytotoxicity ([2]; A375, NCI-H929 and PANC1 cells, 10, 1 and 0.1 μM 5): cytotoxic in the absence NMT inhibition; effect on metabolic activity (Jurkat cells): no effect; IC50 (MDA-MB-231 cells; time- and concentration-dependent, 24, 48, 72 h, read-out: IC50 of proliferation (nuclei counts)): ~0.3 µM; IC50 (human NMTs; ref Bhandarkar et al., 2008): 0.5 to 1.3 µM; NMT1 inhibition (claimed selectivity NMT1 vs NMT2) (human NMT1; ref Rampoldi et al., 2012): 0.5 µM; precipitation in the media ([7]; cell culture media, black rod-shaped crystals): precipitated in the media; concentrations at which precipitation in growth media was most notable ([7]; growth media of multiple cell lines): over 1 μM
